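Following 48 hours of exposure in 96-well plates, responses at five concentrations were used to interpolate endpoints linearly. The concentration for 50% growth inhibition is given as GI50. The concentration for full growth arrest is given as TGI.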
What was measured:
Test in all cases: NCI tumour cell line growth inhibition, 48 h
[1] = tested on: K-562 leukemia
[2] = tested on: EKVX NSCLC
[3] = tested on: OVCAR-3 ovarian
[4] = tested on: UACC-257 melanoma
[5] = tested on: HT29 colon
[6] = tested on: 786-0 renal
[7] = tested on: SK-MEL-2 melanoma
[8] = tested on: SNB-75 CNS
[9] = tested on: IGROV1 ovarian
[10] = tested on: NCI-H460 lung
[11] = tested on: T-47D breast
[12] = tested on: NCI-H23 lung
[13] = tested on: SNB-19 CNS
[14] = tested on: NCI/ADR-RES ovarian
[15] = tested on: OVCAR-4 ovarian
[16] = tested on: UO-31 renal
[17] = tested on: KM12 colon
[18] = tested on: HCT-15 colon
[19] = tested on: A498 renal
[20] = tested on: MCF7 breast
[21] = tested on: OVCAR-8 ovarian
[22] = tested on: SF-295 CNS
[23] = tested on: HS 578T breast
[24] = tested on: SN12C renal
[25] = tested on: U251 CNS
[26] = tested on: NCI-H226 lung
[27] = tested on: PC-3 prostate
[28] = tested on: SK-MEL-28 melanoma
[29] = tested on: HOP-62 NSCLC
[30] = tested on: A549 NSCLC
[31] = tested on: MDA-MB-231 breast
[32] = tested on: SF-539 CNS
[33] = tested on: M14 melanoma
[34] = tested on: MOLT-4 leukemia
[35] = tested on: HOP-92 NSCLC
[36] = tested on: HL-60(TB) leukemia
[37] = tested on: NCI-H522 lung
[38] = tested on: LOX IMVI melanoma
[39] = tested on: HCC-2998 colon
[40] = tested on: UACC-62 melanoma
[41] = tested on: SR leukemia
[42] = tested on: HCT-116 colon
[43] = tested on: CAKI-1 renal
[44] = tested on: CCRF-CEM leukemia
[45] = tested on: SF-268 CNS
[46] = tested on: MALME-3M melanoma
[47] = tested on: OVCAR-5 ovarian
[48] = tested on: MDA-MB-435
[49] = tested on: SW-620 colon
[50] = tested on: SK-OV-3 ovarian
[51] = tested on: TK-10 renal
[52] = tested on: RPMI-8226 leukemia
[53] = tested on: SK-MEL-5 melanoma
[54] = tested on: DU-145 prostate
[55] = tested on: ACHN renal
[56] = tested on: COLO 205 colon
[57] = tested on: BT-549 breast

SMILES: CC(C)(O)c1cncc(-c2ccc3ncc(C#N)c(N4CCc5cc(F)c(Cl)cc54)c3c2)c1
- GI50 [1]: 7.09 µM
- TGI [1]: > 100 µM
- GI50 [2]: 2.55 µM
- TGI [2]: 11.3 µM
- GI50 [3]: 2.91 µM
- TGI [3]: 40.3 µM
- GI50 [4]: 4.22 µM
- TGI [4]: 63.3 µM
- GI50 [5]: 3.31 µM
- TGI [5]: > 100 µM
- GI50 [6]: 3.86 µM
- TGI [6]: > 100 µM
- GI50 [7]: 4.26 µM
- TGI [7]: 21.6 µM
- GI50 [8]: 1.22 µM
- TGI [8]: 5.67 µM
- GI50 [9]: 1.57 µM
- TGI [9]: 6.55 µM
- GI50 [10]: 3.24 µM
- TGI [10]: > 100 µM
- GI50 [11]: 4.06 µM
- TGI [11]: 76.5 µM
- GI50 [12]: 3.6 µM
- TGI [12]: 64.3 µM
- GI50 [13]: 4.08 µM
- TGI [13]: > 100 µM
- GI50 [14]: 4.4 µM
- TGI [14]: 98.2 µM
- GI50 [15]: 2.84 µM
- TGI [15]: 18.5 µM
- GI50 [16]: 0.554 µM
- TGI [16]: 8.69 µM
- GI50 [17]: 6.81 µM
- TGI [17]: > 100 µM
- GI50 [18]: 4.28 µM
- TGI [18]: > 100 µM
- GI50 [19]: 2.07 µM
- TGI [19]: 6.17 µM
- GI50 [20]: 6 µM
- TGI [20]: 53.4 µM
- GI50 [21]: 3.19 µM
- TGI [21]: > 100 µM
- GI50 [22]: 2.38 µM
- TGI [22]: 14.1 µM
- GI50 [23]: 1.23 µM
- TGI [23]: 4.7 µM
- GI50 [24]: 2.03 µM
- TGI [24]: > 100 µM
- GI50 [25]: 4.71 µM
- TGI [25]: > 100 µM
- GI50 [26]: 1.77 µM
- TGI [26]: 15.4 µM
- GI50 [27]: 2.86 µM
- TGI [27]: > 100 µM
- GI50 [28]: 3.39 µM
- TGI [28]: 41 µM
- GI50 [29]: 2.7 µM
- TGI [29]: 57.3 µM
- GI50 [30]: 3.64 µM
- TGI [30]: > 100 µM
- GI50 [31]: 2.6 µM
- TGI [31]: 30.4 µM
- GI50 [32]: 2.88 µM
- TGI [32]: 15.8 µM
- GI50 [33]: 3.79 µM
- TGI [33]: > 100 µM
- GI50 [34]: 3.11 µM
- TGI [34]: > 100 µM
- GI50 [35]: 1.79 µM
- TGI [35]: 7.79 µM
- GI50 [36]: 6.06 µM
- TGI [36]: 28.2 µM
- GI50 [37]: 3.95 µM
- TGI [37]: > 100 µM
- GI50 [38]: 1.81 µM
- TGI [38]: 17.3 µM
- GI50 [39]: 3.75 µM
- TGI [39]: 63.8 µM
- GI50 [40]: 1.84 µM
- TGI [40]: 10.2 µM
- GI50 [41]: 3.52 µM
- TGI [41]: > 100 µM
- GI50 [42]: 5.84 µM
- TGI [42]: > 100 µM
- GI50 [43]: 2.37 µM
- TGI [43]: > 100 µM
- GI50 [44]: 4.25 µM
- TGI [44]: > 100 µM
- GI50 [45]: 3.84 µM
- TGI [45]: > 100 µM
- GI50 [46]: 1.99 µM
- TGI [46]: 7.06 µM
- GI50 [47]: 3.3 µM
- TGI [47]: 82.7 µM
- GI50 [48]: 3.36 µM
- TGI [48]: 32.4 µM
- GI50 [49]: 4.51 µM
- TGI [49]: > 100 µM
- GI50 [50]: 1.83 µM
- TGI [50]: 8.64 µM
- GI50 [51]: 8.33 µM
- TGI [51]: 40 µM
- GI50 [52]: 2.92 µM
- TGI [52]: 87.4 µM
- GI50 [53]: 3.95 µM
- TGI [53]: 13.8 µM
- GI50 [54]: 3.71 µM
- TGI [54]: > 100 µM
- GI50 [55]: 2.89 µM
- TGI [55]: > 100 µM
- GI50 [56]: 4.48 µM
- TGI [56]: 26.7 µM
- GI50 [57]: 2.7 µM
- TGI [57]: 22.7 µM

Source: PubChem BioAssay (NCI)
